# Source: publication PMC6345968, “Structural basis for species-selective targeting of Hsp90 in a pathogenic fungus” (Nature Communications, 2019)
# Like-named read-outs stand apart in the source and are kept apart here.
# Assays:
# Hsp90 in HEPG2 lysate = conditions: for FP signal: raw
# [1] = molecular target: T1, Hsp90 in C. albicans (SC5314) lysate (Candida albicans, UniProt P46598); experiment: biochemical; type: binding; conditions: for FP signal: raw
# T1 construct: endogenous in cells; host or cells: C. albicans SC5314 whole-cell lysate
# T1 sequence (P46598 whole entry): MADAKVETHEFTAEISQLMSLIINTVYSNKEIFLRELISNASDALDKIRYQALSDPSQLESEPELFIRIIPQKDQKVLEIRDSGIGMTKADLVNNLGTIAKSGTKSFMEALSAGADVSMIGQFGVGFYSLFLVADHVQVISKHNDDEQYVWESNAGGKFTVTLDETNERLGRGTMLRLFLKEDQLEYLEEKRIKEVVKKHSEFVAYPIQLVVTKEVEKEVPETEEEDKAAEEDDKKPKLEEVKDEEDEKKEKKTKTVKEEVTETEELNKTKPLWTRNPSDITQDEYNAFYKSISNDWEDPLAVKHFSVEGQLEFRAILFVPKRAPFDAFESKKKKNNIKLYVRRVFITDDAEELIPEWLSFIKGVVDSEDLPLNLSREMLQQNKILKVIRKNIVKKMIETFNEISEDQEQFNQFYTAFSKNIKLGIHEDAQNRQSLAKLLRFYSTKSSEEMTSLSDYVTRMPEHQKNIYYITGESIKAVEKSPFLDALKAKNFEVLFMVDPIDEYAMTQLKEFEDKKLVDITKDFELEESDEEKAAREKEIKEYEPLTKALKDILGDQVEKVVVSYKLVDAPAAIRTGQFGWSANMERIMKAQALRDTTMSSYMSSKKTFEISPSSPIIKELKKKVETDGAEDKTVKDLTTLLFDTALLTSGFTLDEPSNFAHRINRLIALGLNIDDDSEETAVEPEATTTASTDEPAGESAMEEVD
# [2] = SC5314 lysate, 0.457 nM compound
# [3] = SC5314 lysate, 1.372 nM compound
# [4] = SC5314 lysate, 4.115 nM compound
# [5] = SC5314 lysate, […] nM compound
# [6] = SC5314 lysate, 37.037 nM compound
# [7] = SC5314 lysate, 111.111 nM compound
# [8] = SC5314 lysate, 333.333 nM compound
# [9] = SC5314 lysate, 1000 nM compound
# [10] = SC5314 lysate, 3000 nM compound
compound,measurement,setting,value
CCNC(=O)c1noc(-c2cc(C(C)C)c(O)cc2O)c1-c1ccc(CN2CCOCC2)cc1 [AUY9222],EC50,"Hsp90 in HEPG2 lysate; Human lysate, refit block, unit inferred",6.26 nM
CC1(C)CC(=O)c2c(C(F)(F)F)nn(-c3ccc(C(N)=O)c(N[C@H]4CC[C@H](O)CC4)c3)c2C1 [SNX],EC50,"Hsp90 in HEPG2 lysate; read-out: FP EC50, Human lysate, rounded summary",40.1 nM
CC1CC2OC2C=CC=CC(=NOCc2ccccc2)Cc2c(Cl)c(O)cc(O)c2C(=O)O1 (mixture of isomers) [compound 217],Ratio re. GdA,"[1]; EC50 relative to GdA, SC5314 lysate",23.0159
same,FP signal (raw),"[1]; SC5314 lysate, 0.457 nM",197
same,FP signal relative to 0 nM,[1]; [2],0.9426
same,FP signal,[1]; [2],197
same,FP signal (raw),"[1]; SC5314 lysate, 1.372 nM",194
same,FP signal relative to 0 nM,[1]; [3],0.9282
same,FP signal,[1]; [3],194
same,FP signal (raw),"[1]; SC5314 lysate, 4.115 nM",198
same,FP signal relative to 0 nM,[1]; [4],0.9474
same,FP signal,[1]; [4],198
same,FP signal (raw),"[1]; SC5314 lysate, […] nM",197
same,FP signal relative to 0 nM,[1]; [5],0.9426
same,FP signal,[1]; [5],197
same,FP signal (raw),"[1]; SC5314 lysate, 37.037 nM",192
same,FP signal relative to 0 nM,[1]; [6],0.9187
same,FP signal,[1]; [6],192
same,FP signal (raw),"[1]; SC5314 lysate, 111.111 nM",183
same,FP signal relative to 0 nM,[1]; [7],0.8756
same,FP signal,[1]; [7],183
same,FP signal (raw),"[1]; SC5314 lysate, 333.333 nM",134
same,FP signal relative to 0 nM,[1]; [8],0.6411
same,FP signal,[1]; [8],134
same,FP signal (raw),"[1]; SC5314 lysate, 1000 nM",42
same,FP signal relative to 0 nM,[1]; [9],0.201
same,FP signal,[1]; [9],42
same,FP signal (raw),"[1]; SC5314 lysate, 3000 nM",38
same,FP signal relative to 0 nM,[1]; [10],0.1818
same,FP signal,[1]; [10],38
same,EC50,"[1]; SC5314 lysate, not normalized, oxime panel experiment 220817, read-out: EC50",392 nM
same,HepG2/SC5314,"[1]; ratio of GdA-normalized EC50s, human over fungal lysate",0.6913
same,HepG2/SC5314,"[1]; ratio of GdA-relative EC50 ratios, HepG2 over SC5314",0.6913
same,Ratio rel. GdA (HepG2),Hsp90 in HEPG2 lysate; EC50 / EC50 of GdA in HepG2 lysate,15.9107
same,Ratio rel. GdA (HepG2),"Hsp90 in HEPG2 lysate; EC50 relative to GdA, HEPG2 lysate",15.9107
same,"FP signal, Fxn Control","Hsp90 in HEPG2 lysate; HEPG2 lysate, log concentration 0.137354 (1.372 nM)",0.9806
same,"FP signal, Fxn Control","Hsp90 in HEPG2 lysate; HEPG2 lysate, log concentration 0.61437 (4.115 nM)",0.9951
same,"FP signal, Fxn Control","Hsp90 in HEPG2 lysate; HEPG2 lysate, log concentration 1.09153 (12.346 nM)",0.9951
same,"FP signal, Fxn Control","Hsp90 in HEPG2 lysate; HEPG2 lysate, log concentration 1.56864 (37.037 nM)",0.9612
same,"FP signal, Fxn Control","Hsp90 in HEPG2 lysate; HEPG2 lysate, log concentration 2.04576 (111.111 nM)",0.8592
same,"FP signal, Fxn Control","Hsp90 in HEPG2 lysate; HEPG2 lysate, log concentration 2.52288 (333.333 nM)",0.6117
same,"FP signal, Fxn Control","Hsp90 in HEPG2 lysate; HEPG2 lysate, log concentration 3 (1000 nM)",0.2524
same,"FP signal, Fxn Control","Hsp90 in HEPG2 lysate; HEPG2 lysate, log concentration 3.47712 (3000 nM)",0.1893
same,"FP signal, Fxn Control","Hsp90 in HEPG2 lysate; HEPG2 lysate, log concentration -0.340084 (0.457 nM)",1.005
same,FP signal (raw),"Hsp90 in HEPG2 lysate; HepG2 lysate, 0.457 nM",207
same,FP signal,"Hsp90 in HEPG2 lysate; HepG2 lysate, 0.457 nM compound",207
same,FP signal (raw),"Hsp90 in HEPG2 lysate; HepG2 lysate, 1.372 nM",202
same,FP signal,"Hsp90 in HEPG2 lysate; HepG2 lysate, 1.372 nM compound",202
same,FP signal (raw),"Hsp90 in HEPG2 lysate; HepG2 lysate, 4.115 nM",205
same,FP signal,"Hsp90 in HEPG2 lysate; HepG2 lysate, 4.115 nM compound",205
same,FP signal (raw),"Hsp90 in HEPG2 lysate; HepG2 lysate, […] nM",205
same,FP signal,"Hsp90 in HEPG2 lysate; HepG2 lysate, […] nM compound",205
same,FP signal (raw),"Hsp90 in HEPG2 lysate; HepG2 lysate, 37.037 nM",198
same,FP signal,"Hsp90 in HEPG2 lysate; HepG2 lysate, 37.037 nM compound",198
same,FP signal (raw),"Hsp90 in HEPG2 lysate; HepG2 lysate, 111.111 nM",177
same,FP signal,"Hsp90 in HEPG2 lysate; HepG2 lysate, 111.111 nM compound",177
same,FP signal (raw),"Hsp90 in HEPG2 lysate; HepG2 lysate, 333.333 nM",126
same,FP signal,"Hsp90 in HEPG2 lysate; HepG2 lysate, 333.333 nM compound",126
same,FP signal (raw),"Hsp90 in HEPG2 lysate; HepG2 lysate, 1000 nM",52
same,FP signal,"Hsp90 in HEPG2 lysate; HepG2 lysate, 1000 nM compound",52
same,FP signal (raw),"Hsp90 in HEPG2 lysate; HepG2 lysate, 3000 nM",39
same,FP signal,"Hsp90 in HEPG2 lysate; HepG2 lysate, 3000 nM compound",39
same,EC50,"Hsp90 in HEPG2 lysate; HepG2 lysate, oxime panel experiment 220817",353 nM
